# Test results from PubChem BioAssay (NCI).
#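 Assay format: 96-well plates, 48-hour exposure. GI50: concentration for 50% inhibition of growth. TGI: concentration producing complete growth inhibition.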
# Experiments:
# Assay in all cases: growth of human tumour cells (NCI), 48 h
# [1] = test system: U251 CNS
# [2] = test system: HCT-15 colon
# [3] = test system: KM12 colon
# [4] = test system: MDA-MB-435
# [5] = test system: IGROV1 ovarian
# [6] = test system: SN12C renal
# [7] = test system: DU-145 prostate
# [8] = test system: MALME-3M melanoma
# [9] = test system: EKVX NSCLC
# [10] = test system: UO-31 renal
# [11] = test system: NCI-H23 lung
# [12] = test system: CCRF-CEM leukemia
# [13] = test system: LOX IMVI melanoma
# [14] = test system: UACC-62 melanoma
# [15] = test system: SK-OV-3 ovarian
# [16] = test system: SNB-19 CNS
# [17] = test system: NCI-H460 lung
# [18] = test system: M14 melanoma
# [19] = test system: MOLT-4 leukemia
# [20] = test system: SW-620 colon
# [21] = test system: OVCAR-8 ovarian
# [22] = test system: SR leukemia
# [23] = test system: HT29 colon
# [24] = test system: T-47D breast
# [25] = test system: A549 NSCLC
# [26] = test system: SF-268 CNS
# [27] = test system: COLO 205 colon
# [28] = test system: SNB-75 CNS
# [29] = test system: HL-60(TB) leukemia
# [30] = test system: HOP-92 NSCLC
# [31] = test system: SK-MEL-28 melanoma
# [32] = test system: MDA-MB-231 breast
# [33] = test system: SK-MEL-5 melanoma
# [34] = test system: TK-10 renal
# [35] = test system: HCT-116 colon
# [36] = test system: ACHN renal
# [37] = test system: RPMI-8226 leukemia
# [38] = test system: CAKI-1 renal
# [39] = test system: 786-0 renal
# [40] = test system: HOP-62 NSCLC
# [41] = test system: SF-295 CNS
# [42] = test system: K-562 leukemia
# [43] = test system: OVCAR-3 ovarian
# [44] = test system: PC-3 prostate
# [45] = test system: BT-549 breast
# [46] = test system: OVCAR-4 ovarian
smiles,measurement,setting,value
COc1ccc2cc(C(=O)/C=C/c3cc(OC)c(OC)c(OC)c3)ccc2c1,GI50,[1],1.68 µM
same,TGI,[1],9.48 µM
same,GI50,[2],1.77 µM
same,TGI,[2],> 50 µM
same,GI50,[3],2.3 µM
same,TGI,[3],35.7 µM
same,GI50,[4],2.67 µM
same,TGI,[4],40.5 µM
same,GI50,[5],5.49 µM
same,TGI,[5],18.5 µM
same,GI50,[6],1.73 µM
same,TGI,[6],8.78 µM
same,GI50,[7],2.06 µM
same,TGI,[7],11.2 µM
same,GI50,[8],11 µM
same,TGI,[8],25.8 µM
same,GI50,[9],4.05 µM
same,TGI,[9],29.5 µM
same,GI50,[10],7.44 µM
same,TGI,[10],15.5 µM
same,GI50,[11],1.77 µM
same,TGI,[11],11.2 µM
same,GI50,[12],> 50 µM
same,TGI,[12],> 50 µM
same,GI50,[13],2.55 µM
same,TGI,[13],11 µM
same,GI50,[14],5.25 µM
same,TGI,[14],12.7 µM
same,GI50,[15],12.5 µM
same,TGI,[15],46.4 µM
same,GI50,[16],12.9 µM
same,TGI,[16],26.3 µM
same,GI50,[17],1.27 µM
same,TGI,[17],5.73 µM
same,GI50,[18],6.52 µM
same,TGI,[18],16.1 µM
same,GI50,[19],2.91 µM
same,TGI,[19],> 50 µM
same,GI50,[20],1.51 µM
same,TGI,[20],6.91 µM
same,GI50,[21],2.01 µM
same,TGI,[21],> 50 µM
same,GI50,[22],1.32 µM
same,TGI,[22],> 50 µM
same,GI50,[23],2.72 µM
same,TGI,[23],19.7 µM
same,GI50,[24],> 50 µM
same,TGI,[24],> 50 µM
same,GI50,[25],2.56 µM
same,TGI,[25],44.5 µM
same,GI50,[26],5.11 µM
same,TGI,[26],13.7 µM
same,GI50,[27],13.7 µM
same,TGI,[27],> 50 µM
same,GI50,[28],11.8 µM
same,TGI,[28],39.3 µM
same,GI50,[29],5.34 µM
same,TGI,[29],20.9 µM
same,GI50,[30],21.9 µM
same,TGI,[30],> 50 µM
same,GI50,[31],3.91 µM
same,TGI,[31],13.8 µM
same,GI50,[32],1.02 µM
same,TGI,[32],15.8 µM
same,GI50,[33],0.0737 µM
same,TGI,[33],1.01 µM
same,GI50,[34],9.61 µM
same,TGI,[34],31.4 µM
same,GI50,[35],1.62 µM
same,TGI,[35],8.27 µM
same,GI50,[36],7.17 µM
same,TGI,[36],18.2 µM
same,GI50,[37],6.84 µM
same,TGI,[37],> 50 µM
same,GI50,[38],3.41 µM
same,TGI,[38],28.3 µM
same,GI50,[39],7.61 µM
same,TGI,[39],15.7 µM
same,GI50,[40],9.88 µM
same,TGI,[40],20.8 µM
same,GI50,[41],13 µM
same,TGI,[41],> 50 µM
same,GI50,[42],2.49 µM
same,TGI,[42],> 50 µM
same,GI50,[43],5.86 µM
same,TGI,[43],> 50 µM
same,GI50,[44],9.84 µM
same,TGI,[44],> 50 µM
same,GI50,[45],5.7 µM
same,TGI,[45],19.5 µM
same,GI50,[46],2.82 µM
same,TGI,[46],> 50 µM
